# Measurements reported in ChEMBL document CHEMBL1150365, “Improved synthesis of antibacterial 3-substituted 6-anilinouracils” (Bioorg Med Chem Lett, 2008).
# Active and inactive are the calls of the source. No cut-off for these calls is given here.
# Key:
# Streptococcus pneumoniae = test: Antibacterial activity against Streptococcus pneumoniae 1707/4 in presence of bovine serum by broth microdilution method; assay type: functional
# Enterococcus faecalis = test: Antibacterial activity against Enterococcus faecalis ICB 27159 in presence of bovine serum by broth microdilution method; assay type: functional
# Staphylococcus aureus [1] = test: Antibacterial activity against Staphylococcus aureus 133 by broth microdilution method; assay type: functional
# [2] = Inhibition of Staphylococcus aureus DNA polymerase 3C
# [3] = Aqueous solubility of the compound; assay type: physicochemical; details: water
# Staphylococcus aureus [4] = test: Antibacterial activity in Staphylococcus aureus injected CFU mouse at 100 mg/kg, ip after 30 mins; assay type: functional, organism-based; parameters: dose 100 mg/kg
MIC (Streptococcus pneumoniae),MIC (Enterococcus faecalis),MIC (Staphylococcus aureus [1]),IC50 [2],solubility [3],Compound,Activity (Staphylococcus aureus [4])
8 µg/mL,16 µg/mL,8 µg/mL,0.3 µM,–,CCc1cc(Nc2cc(=O)n(CCCO)c(=O)[nH]2)ccc1C,–
4 µg/mL,16 µg/mL,4 µg/mL,0.3 µM,3.3 µg/mL,O=c1cc(Nc2ccc3c(c2)CCC3)[nH]c(=O)n1CC1CC1,inactive
16 µg/mL,64 µg/mL,16 µg/mL,1.5 µM,–,CCOC(=O)Cn1c(=O)cc(Nc2ccc3c(c2)CCC3)[nH]c1=O,–
16 µg/mL,32 µg/mL,32 µg/mL,1.2 µM,–,CN(C)C(=O)c1cc(Cn2c(=O)cc(Nc3ccc4c(c3)CCC4)[nH]c2=O)on1,–
16 µg/mL,32 µg/mL,32 µg/mL,2 µM,–,COC(=O)c1ccc(Cn2c(=O)cc(Nc3ccc4c(c3)CCC4)[nH]c2=O)o1,–
> 256 µg/mL,> 256 µg/mL,> 256 µg/mL,> 13 µM,–,O=C(Cn1c(=O)cc(Nc2ccc3c(c2)CCC3)[nH]c1=O)c1ccc(Br)cc1,–
